Experimental data: US20230119479A1, “A HISTONE DEACETYLASE INHIBITOR HAVING A NITROGEN-CONTAINING AROMATIC HETEROCYCLYL GROUP” (SHIONOGI & CO., LTD., priority 2019, published 2023)

Assays:
[1] = target: T1, human ether-a-go-go related gene (hERG) channel (Homo sapiens, UniProt Q12809); assay: hERG test (whole cell patch clamp); format: cell-based; settings: CHO cells expressing hERG; concentration not given
T1 construct: expressed in transfected cells; host or cells: CHO cells
Text: For the purpose of assessing risk of an electrocardiogram QT interval prolongation of the compound of the present invention, effects of the compound of the present invention on delayed rectifier K^+ current (IKr), which plays an important role in the ventricular repolarization process, was studied using CHO cells expressing human ether-a-go-go related gene (hERG) channel.
After a cell was retained at a membrane potential of −80 mV by whole cell patch clamp method using an automated patch clamp system (QPatch; Sophion Bioscience A/S) and gave a leak potential of −50 mV, IKr induced by depolarization pulse stimulation at +20 mV for 2 seconds, and further, repolarization pulse stimulation at −50 mV for 2 seconds, was recorded. A vehicle, which was the 0.1% dimethyle sulfoxide solution in extracellular solution (NaCl: 145 mmol/L, KCl: 4 mmol/L, CaCl2: 2 mmol/L, MgCl2: 1 mmol/L, glucose:10 mmol/L, HEPES (4-(2-hydroxyethyl)-1-piperazineethanesulfonic acid): 10 mmol/L, pH7.4), or the compound of the present invention had been dissolved at an objective concentration in the extracellular solution was applied to the cell at room temperature for 7 minutes or more. From the recording IKr, an absolute value of the tail peak current was measured based on the current value at the resting membrane potential using analysis software (QPatch assay software; Sophion Bioscience A/S). Further, the % inhibition of tail peak current for the compound of the present invention relative to the tail peak current after application of the vehicle was calculated to assess influence of the compound of the present invention on IKr. The dilution concentration and dilution solvent were changed as necessary.

[2] = target: T2, HDAC2 Human recombinant C-terminal FLAG-tag (Homo sapiens, UniProt Q92769); assay: Measurement of HDAC2 enzyme inhibitory activity (HTRF); format: biochemical; settings: recombinant HDAC2, H3K9ac peptide, 3 hours room temperature; read-out: HDAC2 IC50
T2 construct: FLAG (C); purchased BPS Bioscience 50052
T2 sequence (Q92769 whole entry): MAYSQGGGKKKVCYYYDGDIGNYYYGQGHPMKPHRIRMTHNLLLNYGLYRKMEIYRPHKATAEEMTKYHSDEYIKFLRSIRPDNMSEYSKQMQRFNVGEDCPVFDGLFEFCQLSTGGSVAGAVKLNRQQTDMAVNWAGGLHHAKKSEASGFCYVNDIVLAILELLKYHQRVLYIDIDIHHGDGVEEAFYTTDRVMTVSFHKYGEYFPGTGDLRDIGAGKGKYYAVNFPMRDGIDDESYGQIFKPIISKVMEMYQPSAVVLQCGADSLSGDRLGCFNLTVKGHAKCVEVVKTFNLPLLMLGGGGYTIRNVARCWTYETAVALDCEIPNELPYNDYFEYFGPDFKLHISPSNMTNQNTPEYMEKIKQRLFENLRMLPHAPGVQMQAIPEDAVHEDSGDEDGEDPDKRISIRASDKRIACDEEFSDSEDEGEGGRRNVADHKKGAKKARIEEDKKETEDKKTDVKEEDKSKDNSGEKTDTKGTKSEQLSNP
Outline: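 Compounds were tested at 8 points in 3-fold dilutions from 99 μM final (n=2) against FLAG-tagged HDAC2 with biotinylated H3K9ac (1-21) peptide (0.6 μM as added). The reaction ran 3 h at room temperature in Tris pH 8.0 buffer, then was stopped with SAHA. Deacetylated product was detected by HTRF (Eu-anti-H3K9me0 antibody, streptavidin-XL665) as the 665/615-620 nm ratio.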

[3] = tested on: HDACs other than HDAC2 (HDAC2 knockout K562 cells); assay: Evaluation of HDAC2 selectivity: H3K9 histone acetylation in HDAC2 knockout K562 cells (AlphaLISA); format: cell-based; settings: Homo sapiens, maximum concentration 83.3 μM, 100% = SAHA-treated group, read-out: maximum inhibition rate (H3K9 histone acetylation);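 further: 0% inhibition equals DMSO-treated group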
Experimental: Test Example 3: Evaluation of HDAC2 Selectivity
K562 cells were cultured in RPMI1640 medium (SIGMA, R8758) containing 10% FBS (Hyclone, SH30070.03) and 1% penicillin streptomycin (Nacalai Tesque, 26252-94). CompoZr (registered trademark) Zinc Finger Nuclease (Merck) targeting HDAC2 sequences was transfected into K562 cells by electroporation using Nucleofector (Lonza). The cells after transfection were subjected to limiting dilution, and DNA sequencing was performed on the cell clones in which mutations were detected by the PCR method. Cell clones lacking a base number that was not a multiple of 3 in both alleles were identified, and a single-cell cloning was performed on the cell clones to produce HDAC2 knockout K562 cells. It was confirmed that the expression of HDAC2 was not detected by Western blotting in the prepared cells.
By evaluating the H3K9 histone acetylation-enhancing activity of the test compound using HDAC2 knockout K562 cells, the inhibitory activity against HDACs other than HDAC2 was evaluated.
HDAC2 knockout K562 cells stored in liquid nitrogen were thawed and cultured in RPMI1640 medium (Nacalai Tesque, 30264-85) for 2 to 4 days. Using Echo555 (Beckman Coulter), the test compound was dispensed to the assay plate (Corning, 4513) at 37.5 nL/well, and then HDAC2 knockout K562 cells were seeded to 125 cells/4.5 μL/well, and stirred. At this time, the test compound was treated at 8 points (n=2) in the 3-fold dilution series from the maximum concentration of 83.3 μM. After culturing at 37° C. and 5% CO2 overnight, 1.5 μL/well of Lysis buffer (PerkinElmer, AL009F1) was added, and after incubating at room temperature for 15 minutes, 3 μL/well of Extraction buffer (PerkinElmer, AL009F2) was added and the mixture was incubated for 10 minutes at room temperature. Then, 5× antibody solution (prepared by diluting anti-H3K9 Acceptor beads (PerkinElmer, AL114M) 75-fold with a detection buffer prepared by diluting 10×Cell-Histone Detection buffer (PerkinElmer, AL009F3) 10-fold with ultrapure water, and diluting Biotinylated anti H3 antibody (PerkinElmer, AL118M) diluted 150 times with the detection buffer) was added at 3 μL/well, and after incubating at room temperature for 60 minutes, then 5× donor beads solution (prepared by diluting Streptavidin Donor beads (PerkinElmer, 6760002) 75 fold with the detection buffer) was added at 3 μL/well, and the mixture was incubated again at room temperature for 60 minutes, and then the emission value was measured using PHERAstar (BMG LABTECH) (excitation=680 nm, […]). […] For cell toxicity, cell viability rate was evaluated by the PrestoBlue method.

T1 sequence (Q12809 whole entry): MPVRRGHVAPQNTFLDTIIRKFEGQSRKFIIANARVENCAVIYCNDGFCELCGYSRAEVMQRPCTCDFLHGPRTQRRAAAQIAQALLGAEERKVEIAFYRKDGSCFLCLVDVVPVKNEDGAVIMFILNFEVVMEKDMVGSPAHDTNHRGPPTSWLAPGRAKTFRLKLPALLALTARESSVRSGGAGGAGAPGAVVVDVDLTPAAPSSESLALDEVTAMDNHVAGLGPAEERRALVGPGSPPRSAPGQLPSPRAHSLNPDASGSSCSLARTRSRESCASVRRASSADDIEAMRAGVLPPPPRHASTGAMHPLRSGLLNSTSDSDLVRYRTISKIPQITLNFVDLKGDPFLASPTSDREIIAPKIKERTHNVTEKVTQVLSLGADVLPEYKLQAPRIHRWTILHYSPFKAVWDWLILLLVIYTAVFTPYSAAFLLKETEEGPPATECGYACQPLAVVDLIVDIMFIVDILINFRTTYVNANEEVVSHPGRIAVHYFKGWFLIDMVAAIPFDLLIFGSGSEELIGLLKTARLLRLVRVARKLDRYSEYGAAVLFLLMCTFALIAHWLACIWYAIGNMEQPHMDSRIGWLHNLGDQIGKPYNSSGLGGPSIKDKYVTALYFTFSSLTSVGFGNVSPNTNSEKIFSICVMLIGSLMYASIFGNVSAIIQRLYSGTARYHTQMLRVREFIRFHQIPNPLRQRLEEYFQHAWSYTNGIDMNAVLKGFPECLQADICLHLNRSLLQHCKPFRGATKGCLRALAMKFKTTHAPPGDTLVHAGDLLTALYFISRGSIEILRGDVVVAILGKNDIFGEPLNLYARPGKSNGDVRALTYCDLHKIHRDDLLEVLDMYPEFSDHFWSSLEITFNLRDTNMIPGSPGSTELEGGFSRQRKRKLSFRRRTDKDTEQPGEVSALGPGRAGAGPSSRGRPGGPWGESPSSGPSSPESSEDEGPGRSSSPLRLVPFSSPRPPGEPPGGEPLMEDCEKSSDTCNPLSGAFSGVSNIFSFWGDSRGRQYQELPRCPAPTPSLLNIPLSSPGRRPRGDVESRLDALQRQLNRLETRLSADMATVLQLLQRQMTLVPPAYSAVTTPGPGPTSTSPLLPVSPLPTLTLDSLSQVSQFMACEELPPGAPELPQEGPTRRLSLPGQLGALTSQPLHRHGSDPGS

SMILES	% inhibition of tail peak current (IKr) [1]	IC50 [2]	inhibition at up to 83.3 µM [3]
C[C@H](F)COc1cnc(C(=O)Nc2cc(-c3ccc(F)nc3)ccc2N)cn1 (racemic) [Compound I-125]	18.6%	180 nM	6%
Cn1cc(-c2cnc(C(=O)Nc3nc(-c4cccs4)ccc3N)cn2)cn1 [Compound I-017]	–	220 nM	5%
Cn1cc(-c2cnc(C(=O)Nc3nc(-n4cccc4)ccc3N)cn2)cn1 [Compound I-023]	–	180 nM	8%
Cn1cc(-c2cnc(C(=O)Nc3cc(-c4ccc(F)nc4)ccc3N)cn2)cn1 [Compound I-080]	9.5%	48 nM	7%
N#Cc1ccc(C(=O)Nc2cc(-c3ccc(F)nc3)ccc2N)nc1 [Compound I-092]	30%	250 nM	6%
CCOc1cnc(C(=O)Nc2cc(-c3ccc(F)nc3)ccc2N)cn1 [Compound I-118]	23.3%	140 nM	8%
Cn1cc(-c2ccc(N)c(NC(=O)c3cnc(C4CC4)cn3)c2)cn1 [Compound I-130]	3.3%	140 nM	–
